Assay [1] relates to S6RP serine-240/244 phosphorylation. Briefly: In vitro phospho-S6 cellular assay (HEK293T/17). In kind it is cell-based. The following applies: Homo sapiens; HEK293T/17 cells, 2 hours, pS6RP Ser240/244; read-out: Inhibition values (IC50) pS6. A digest of the protocol: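 HEK293T/17 cells in DMEM with 2% FCS were exposed to 8 compound concentrations (0.1% DMSO) for 2 h at 37 °C, then lysed. pS6RP Ser240/244 or pAkt Ser473 in the lysates was quantified by MSD sandwich electrochemiluminescence. IC50 was obtained by sigmoidal variable-slope nonlinear regression.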

For assay [2], the target named is T1, PI3K beta (PI3Kb) (Homo sapiens, UniProt P42338).
T1 construct: Jurkat cells were homogenized in a Potter S homogenizer in lysis buffer; endogenous in cells; host or cells: Jurkat, clone E6-1 (ATCC TIB-152) lysate
Kind of assay: kinobeads assay, PI3K beta. In kind it is binding. The following applies: Jurkat cell lysate, read-out: Inhibition values (IC50) PI3Kb. The method in brief:
(§1)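 Jurkat lysate, 5 mg/ml protein, 3 h cold-room incubation with test compound (9-step 1:3 series) and immobilized-ligand affinity beads. Wash, SDS elution, dot blot with specific antibody, Odyssey infrared read. IC50 fitted per kinase.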

The target in assay [3] is T2, PI3K gamma (PI3Kg) (Homo sapiens, UniProt P48736).
T2 construct: Jurkat cells were homogenized in a Potter S homogenizer in lysis buffer; endogenous in cells; host or cells: Jurkat, clone E6-1 (ATCC TIB-152) lysate
Briefly: kinobeads assay, PI3K gamma. As to conditions: Jurkat cell lysate, read-out: Inhibition values (IC50) PI3Kg. In kind it is binding. The method in brief: as §1

The test system of assay [4] is Akt serine-473 phosphorylation. Briefly: In vitro phospho-Akt cellular assay (HEK293T/17). In kind it is cell-based. The following applies: Homo sapiens; HEK293T/17 cells, 2 hours, pAkt Ser 473; read-out: Inhibition values (IC50) pAkt. From the text: Activation of mTOR signaling results in phosphorylation of several downstream targets. In cells, mTOR exists in two different protein complexes. The mTOR Complex-1 (mTORC1) phosphorylates and activates S6 Kinase 1 (S6K1) and S6 Kinase 2 (S6K2) (also known as p70S6K) which then phosphorylate S6 Ribosomal Protein (S6RP) (also known as RPS6)3. S6RP is phosphorylated on serine 235, senile 236, serine 240 and serine 244 by both pS6K1 and pS6K2. The mTOR Complex-2 (mTORC2) phosphorylates AKT on serine 473 which activates the AKT signaling pathway.
The assay measures a test compound's inhibition of S6RP serine-240/244 phosphorylation and inhibition of Akt serine-473 phosphorylation in human embryonic kidney derived HEK293T/17 cells (ATCC CRL-11268).
The HEK293T/17 cell line is maintained in DMEM media (Invitrogen catalogue number 41965-039) supplemented with 10% FCS at 37° C. in a 5% CO2 humidified incubator. Cells are seeded in 96-well plates at 40,000 cells/well (pS6RP S240/244 assay) or 80,000 cells/well (pAkt 5473 assay) in 90 μl growth media (DMEM, 2% FCS). Plates are incubated for 1 hour in a humidified incubator to allow the cells to adhere. Cells are treated with 8 concentrations of test compounds or DMSO alone for controls (final DMSO concentration 0.1%) and incubated at 37° C. for 2 hours. Then 20 μl of 5× concentrated lysis buffer (750 mM NaCl, 100 mM Tris pH7.4, 5 mM ADTA, 5 mM EGTA, 5% Triton X-100) is added, plates are sealed and incubated for 15 minutes at 4° C. with gentle shaking After cell lysis, 25 μl cell lysate is transferred to a MesoScale plate coated with an antibody to pS6RP Ser240/244 (MesoScale Discovery K150DGD-3) or an antibody to pAkt Ser 473 (MesoScale Discovery K151DGD-3). Plates have been blocked before by incubation with 150 μl MesoScale Discovery Blocking Solution-A for 1 hour at room temperature followed by washing with 150 μl 1×Tris wash buffer per well. After the transfer of the cell lysate to the MSD plate, the pS6RP (or pAkt) protein is captured on the coated antibody by incubation at room temperature for 1 hour with gentle shaking. After the capture step the plate is washed three times with 150 μl of 1× Tris wash buffer per well. Then 25 μl detection antibody conjugated with a Sulfo-Tag is added and incubated for 1 hour at room temperature with gentle shaking. Subsequently the antibody solution is removed and the plate is washed 3 times with 150 μl 1×Tris wash buffer per well and 150 μl Read buffer is added. The plates are analysed on a MSD 2400 Plate Reader (MesoScale Discovery). Data analysis is performed using nonlinear regression for a sigmoidal dose-response with a variable slope.

Assay [5] deals with T3, PI3K delta (PI3Kd) (Homo sapiens, UniProt O00329).
T3 construct: Jurkat cells were homogenized in a Potter S homogenizer in lysis buffer; endogenous in cells; host or cells: Jurkat, clone E6-1 (ATCC TIB-152) lysate
Kind of assay: kinobeads assay, PI3K delta. In kind it is binding. The following applies: Jurkat cell lysate, read-out: Inhibition values (IC50) PI3Kd. A digest of the protocol:
as §1

Assay [6] concerns the target T4, DNA-dependent protein kinase (DNA-PK) (Homo sapiens, UniProt P78527).
T4 construct: Jurkat cells were homogenized in a Potter S homogenizer in lysis buffer; endogenous in cells; host or cells: Jurkat, clone E6-1 (ATCC TIB-152) lysate
Briefly: kinobeads assay, DNA-PK. As to conditions: Jurkat cell lysate, read-out: Inhibition values (IC50) DNA-PK. In kind it is binding. The method in brief:
as §1

Assay [7] addresses T5, PI3K alpha (PI3Kα) (Homo sapiens, UniProt P42336).
T5 construct: Jurkat cells were homogenized in a Potter S homogenizer in lysis buffer; endogenous in cells; host or cells: Jurkat, clone E6-1 (ATCC TIB-152) lysate
Kind of assay: kinobeads assay, PI3K alpha. In kind it is binding. The following applies: Jurkat cell lysate, read-out: Inhibition values (IC50) PI3Ka. The method in brief:
as §1

Assay [8] addresses T6, mTOR (Homo sapiens, UniProt P42345).
T6 construct: Jurkat cells were homogenized in a Potter S homogenizer in lysis buffer; endogenous in cells; host or cells: Jurkat, clone E6-1 (ATCC TIB-152) lysate
Briefly: mTOR kinobeads assay (Jurkat cell lysate, dot blot detection). As to conditions: read-out: Inhibition values (IC50) mTor. The format is binding. The method in brief: as §1

T4 sequence (P78527 whole entry): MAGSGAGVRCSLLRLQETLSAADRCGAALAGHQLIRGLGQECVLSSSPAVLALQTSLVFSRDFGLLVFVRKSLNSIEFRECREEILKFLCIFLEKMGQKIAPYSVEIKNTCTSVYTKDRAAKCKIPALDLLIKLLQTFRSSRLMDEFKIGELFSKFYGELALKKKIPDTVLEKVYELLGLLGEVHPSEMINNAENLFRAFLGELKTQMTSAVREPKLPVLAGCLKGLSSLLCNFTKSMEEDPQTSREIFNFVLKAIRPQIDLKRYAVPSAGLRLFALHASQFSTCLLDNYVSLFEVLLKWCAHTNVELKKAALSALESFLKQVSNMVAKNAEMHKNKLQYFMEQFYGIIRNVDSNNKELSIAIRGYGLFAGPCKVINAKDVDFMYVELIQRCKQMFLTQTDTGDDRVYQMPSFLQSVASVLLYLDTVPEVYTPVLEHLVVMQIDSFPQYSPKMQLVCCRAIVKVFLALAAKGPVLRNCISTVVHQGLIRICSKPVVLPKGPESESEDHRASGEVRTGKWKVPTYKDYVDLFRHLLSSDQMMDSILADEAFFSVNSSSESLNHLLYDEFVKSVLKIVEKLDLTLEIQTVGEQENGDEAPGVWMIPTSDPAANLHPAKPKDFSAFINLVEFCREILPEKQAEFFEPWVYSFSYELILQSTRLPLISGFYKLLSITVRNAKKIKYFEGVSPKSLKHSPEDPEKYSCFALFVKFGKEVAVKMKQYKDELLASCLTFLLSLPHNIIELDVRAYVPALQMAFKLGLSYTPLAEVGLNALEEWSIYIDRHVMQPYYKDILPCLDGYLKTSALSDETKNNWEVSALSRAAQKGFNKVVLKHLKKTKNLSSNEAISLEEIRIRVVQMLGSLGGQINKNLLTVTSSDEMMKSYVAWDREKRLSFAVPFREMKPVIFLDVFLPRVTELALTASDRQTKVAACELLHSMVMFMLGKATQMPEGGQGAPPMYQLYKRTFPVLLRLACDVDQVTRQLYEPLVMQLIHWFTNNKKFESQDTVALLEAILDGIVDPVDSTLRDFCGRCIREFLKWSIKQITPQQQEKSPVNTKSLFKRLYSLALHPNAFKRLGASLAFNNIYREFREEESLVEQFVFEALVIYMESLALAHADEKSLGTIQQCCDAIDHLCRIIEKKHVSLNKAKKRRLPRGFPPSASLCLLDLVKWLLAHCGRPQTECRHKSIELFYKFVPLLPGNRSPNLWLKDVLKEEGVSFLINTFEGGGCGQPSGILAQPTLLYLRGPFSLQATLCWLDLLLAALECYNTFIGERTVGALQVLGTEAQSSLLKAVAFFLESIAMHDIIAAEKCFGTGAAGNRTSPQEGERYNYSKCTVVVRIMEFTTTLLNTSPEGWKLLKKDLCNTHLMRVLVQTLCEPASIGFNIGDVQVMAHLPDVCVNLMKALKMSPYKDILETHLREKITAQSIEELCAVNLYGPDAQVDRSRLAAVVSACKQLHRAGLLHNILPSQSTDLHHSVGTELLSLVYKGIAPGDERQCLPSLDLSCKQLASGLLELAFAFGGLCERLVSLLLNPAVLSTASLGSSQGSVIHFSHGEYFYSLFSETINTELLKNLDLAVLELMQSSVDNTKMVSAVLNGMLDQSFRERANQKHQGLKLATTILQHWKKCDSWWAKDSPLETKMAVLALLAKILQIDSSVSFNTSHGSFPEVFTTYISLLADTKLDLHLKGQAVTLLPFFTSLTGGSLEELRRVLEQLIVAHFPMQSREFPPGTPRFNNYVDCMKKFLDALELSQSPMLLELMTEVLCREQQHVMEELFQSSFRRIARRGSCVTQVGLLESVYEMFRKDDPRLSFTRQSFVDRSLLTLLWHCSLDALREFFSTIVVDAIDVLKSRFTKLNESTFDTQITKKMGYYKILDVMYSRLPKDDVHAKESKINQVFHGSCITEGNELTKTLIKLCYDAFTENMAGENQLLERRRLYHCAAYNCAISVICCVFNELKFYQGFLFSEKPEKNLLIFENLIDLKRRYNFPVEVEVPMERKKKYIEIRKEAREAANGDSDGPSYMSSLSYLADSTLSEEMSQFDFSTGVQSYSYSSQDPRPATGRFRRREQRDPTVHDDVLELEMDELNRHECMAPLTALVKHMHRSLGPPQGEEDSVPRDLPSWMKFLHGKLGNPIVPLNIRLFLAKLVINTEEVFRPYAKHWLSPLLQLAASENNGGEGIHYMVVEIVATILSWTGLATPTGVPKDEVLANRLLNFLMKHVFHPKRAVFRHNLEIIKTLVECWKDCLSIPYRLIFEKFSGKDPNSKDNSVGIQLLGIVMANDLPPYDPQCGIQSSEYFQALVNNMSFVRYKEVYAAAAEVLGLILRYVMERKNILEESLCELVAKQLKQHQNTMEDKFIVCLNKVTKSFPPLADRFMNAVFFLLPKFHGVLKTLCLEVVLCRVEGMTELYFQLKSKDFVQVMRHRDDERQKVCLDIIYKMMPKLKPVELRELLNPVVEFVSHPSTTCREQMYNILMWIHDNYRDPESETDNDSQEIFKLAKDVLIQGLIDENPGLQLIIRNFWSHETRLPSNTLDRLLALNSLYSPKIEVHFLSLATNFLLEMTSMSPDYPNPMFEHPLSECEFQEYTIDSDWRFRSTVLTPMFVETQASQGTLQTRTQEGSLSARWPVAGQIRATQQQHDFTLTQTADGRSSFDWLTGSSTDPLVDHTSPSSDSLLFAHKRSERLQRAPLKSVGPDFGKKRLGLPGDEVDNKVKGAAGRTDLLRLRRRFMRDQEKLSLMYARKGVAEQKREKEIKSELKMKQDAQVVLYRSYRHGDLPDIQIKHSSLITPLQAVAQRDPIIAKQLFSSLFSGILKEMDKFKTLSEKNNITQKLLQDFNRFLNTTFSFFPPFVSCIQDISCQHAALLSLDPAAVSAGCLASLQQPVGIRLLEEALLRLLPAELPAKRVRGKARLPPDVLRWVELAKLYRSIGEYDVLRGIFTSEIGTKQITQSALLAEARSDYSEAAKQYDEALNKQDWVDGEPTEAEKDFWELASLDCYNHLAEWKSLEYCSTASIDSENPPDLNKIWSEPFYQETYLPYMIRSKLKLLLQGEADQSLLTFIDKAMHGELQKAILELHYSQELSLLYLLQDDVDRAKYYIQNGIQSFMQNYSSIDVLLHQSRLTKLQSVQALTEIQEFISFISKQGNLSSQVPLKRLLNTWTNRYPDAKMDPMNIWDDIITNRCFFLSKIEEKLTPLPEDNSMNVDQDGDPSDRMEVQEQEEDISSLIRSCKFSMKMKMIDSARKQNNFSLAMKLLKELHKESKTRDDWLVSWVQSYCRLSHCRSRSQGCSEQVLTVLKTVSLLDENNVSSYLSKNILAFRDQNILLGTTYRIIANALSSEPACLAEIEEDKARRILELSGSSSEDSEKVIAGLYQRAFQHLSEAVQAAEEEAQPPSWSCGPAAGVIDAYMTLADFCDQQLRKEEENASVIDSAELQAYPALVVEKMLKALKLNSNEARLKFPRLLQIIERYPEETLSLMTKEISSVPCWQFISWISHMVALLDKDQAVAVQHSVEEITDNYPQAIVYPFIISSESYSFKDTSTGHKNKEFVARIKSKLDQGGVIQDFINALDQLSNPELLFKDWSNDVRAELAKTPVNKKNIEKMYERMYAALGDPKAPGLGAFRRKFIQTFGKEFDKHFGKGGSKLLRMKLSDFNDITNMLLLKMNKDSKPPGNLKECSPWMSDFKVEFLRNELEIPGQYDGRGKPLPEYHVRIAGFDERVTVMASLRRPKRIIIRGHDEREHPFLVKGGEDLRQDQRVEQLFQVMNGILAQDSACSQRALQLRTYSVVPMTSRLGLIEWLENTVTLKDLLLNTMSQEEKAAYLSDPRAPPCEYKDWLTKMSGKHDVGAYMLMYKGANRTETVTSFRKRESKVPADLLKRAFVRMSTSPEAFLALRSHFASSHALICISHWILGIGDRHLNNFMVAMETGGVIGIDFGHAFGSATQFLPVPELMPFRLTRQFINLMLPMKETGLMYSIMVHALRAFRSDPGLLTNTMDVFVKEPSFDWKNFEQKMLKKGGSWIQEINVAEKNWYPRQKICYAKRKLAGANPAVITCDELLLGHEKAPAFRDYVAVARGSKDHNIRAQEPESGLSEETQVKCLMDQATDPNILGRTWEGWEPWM

For `C[C@H]1COCCN1c1nc(-c2ccc(NC(=O)NCCO)cc2)nc(-c2cc(F)ccc2S(C)(=O)=O)n1` [Example 6, (S)-1-(4-(4-(5-fluoro-2-(methylsulfonyl)phenyl)-6-(3-methylmorpholino)-1,3,5-triazin-2-yl)phenyl)-3-(2-hydroxyethyl)urea], the IC50 was 0.1 to 1 µM in assay [1]; > 10 µM in assay [2]; > 10 µM in assay [3]; < 0.1 µM in assay [4]; > 10 µM in assay [5]; > 10 µM in assay [6]. The IC50 is > 10 µM in assay [7] and < 0.1 µM in assay [8].

In the case of `C[C@H]1COCCN1c1nc(-c2ccc(NC(=O)NCC(F)F)cc2)nc(-c2ccccc2S(C)(=O)=O)n1` [Example 8, (S)-1-(2,2-difluoroethyl)-3-(4-(4-(3-methylmorpholin)-6-(2-(methylsulfonyl)phenyl)-1,3,5-triazin-2-yl)phenyl)urea], the IC50 was < 0.1 µM in assay [1]; > 10 µM in assay [2]; > 10 µM in assay [3]; < 0.1 µM in assay [4]; > 10 µM in assay [5]; > 10 µM in assay [6]. In addition, the IC50 in assay [7] is > 10 µM; in assay [8] it was < 0.1 µM.

`C[C@H]1COCCN1c1nc(-c2ccc(NC(=O)Nc3ccc(CO)cc3)cc2)nc(-c2ccccc2S(C)(=O)=O)n1` [Example 25, (S)-1-(4-(hydroxymethyl)phenyl)-3-(4-(4-(3-methylmorpholino)-6-(2-(methylsulfonyl)phenyl)-1,3,5-triazin-2-yl)phenyl)urea]: the IC50 in assay [1] is < 0.1 µM; in assay [2] it was > 10 µM; in assay [3] it was > 10 µM; in assay [5], > 10 µM; in assay [6], > 10 µM; in assay [7], > 10 µM. Besides, the concentration for half-maximal inhibition (IC50) in assay [8] was in the range of 0.1 to 1 µM.

With `C[C@H]1COCCN1c1nc(-c2ccc(NC(=O)NC3CC3(F)F)cc2)nc(-c2ccccc2S(C)(=O)=O)n1` (stereo partly drawn) [Example 29, 1-(2,2-difluorocyclopropyl)-3-(4-(4-((S)-3-methylmorpholino)-6-(2-(methylsulfonyl)phenyl)-1,3,5-triazin-2-yl)phenyl)urea], the IC50 is < 0.1 µM in assay [1]; > 10 µM in assay [2]; > 10 µM in assay [3]; > 10 µM in assay [5]; > 10 µM in assay [6]; > 10 µM in assay [7]. Besides, the IC50 in assay [8] fell in the range of 0.1 to 1 µM.

Take `C[C@H]1COCCN1c1nc(-c2ccc(NC(=O)NC3CCC3)cc2)nc(-c2ccccc2S(C)(=O)=O)n1` [Example 27, (S)-1-cyclobutyl-3-(4-(4-(3-methylmorpholino)-6-(2-(methylsulfonyl)phenyl)-1,3,5-triazin-2-yl)phenyl)urea]: the IC50 was < 0.1 µM in assay [1]; > 10 µM in assay [2]; > 10 µM in assay [3]; > 10 µM in assay [5]; > 10 µM in assay [6]; > 10 µM in assay [7]. In addition, the half-maximal inhibitory concentration (IC50) in assay [8] was in the range of 0.1 to 1 µM.

For the compound `C[C@H]1COCCN1c1nc(-c2ccc(NC(=O)NCC(F)(F)F)cc2)nc(-c2ccccc2S(C)(=O)=O)n1` [Example 32, (S)-1-(4-(4-(3-methylmorpholino)-6-(2-(methylsulfonyl)phenyl)-1,3,5-triazin-2-yl)phenyl)-3-(2,2,2-trifluoroethyl)urea], the IC50 in assay [1] was < 0.1 µM; in assay [2] it was > 10 µM; in assay [3], > 10 µM; in assay [5], > 10 µM; in assay [6] it was > 10 µM; in assay [7], > 10 µM. The IC50 in assay [8] lay within 0.1 to 1 µM.

Turning to `C[C@@H]1COCCN1c1nc(-c2ccc(NC(=O)NC3CC3)cc2)nc(-c2ccccc2S(C)(=O)=O)n1` [Example 13, (R)-1-cyclopropyl-3-(4-(4-(3-methylmorpholino)-6-(2-(methylsulfonyl)phenyl)-1,3,5-triazin-2-yl)phenyl)urea], the IC50 in assay [1] was < 0.1 µM; in assay [2] it was > 10 µM; in assay [3], > 10 µM; in assay [5], > 10 µM; in assay [6] it was > 10 µM; in assay [7] it was > 10 µM. For the same compound, the IC50 in assay [8] is 0.1 to 1 µM.

For the compound `CCCNC(=O)Nc1ccc(-c2nc(-c3ccccc3S(C)(=O)=O)nc(N3CCOC[C@@H]3C)n2)cc1` [Example 18, (S)-1-(4-(4-(3-methylmorpholino)-6-(2-(methylsulfonyl)phenyl)-1,3,5-triazin-2-yl)phenyl)-3-propylurea], the IC50 was < 0.1 µM in assay [1]; > 10 µM in assay [2]; > 10 µM in assay [3]; > 10 µM in assay [5]; > 10 µM in assay [6]; > 10 µM in assay [7]. Besides, the IC50 in assay [8] was in the range of 0.1 to 1 µM.

Regarding `CC(C)NC(=O)Nc1ccc(-c2nc(-c3ccccc3S(C)(=O)=O)nc(N3CCOC[C@@H]3C)n2)cc1` [Example 15, (S)-1-isopropyl-3-(4-(4-(3-methylmorpholino)-6-(2-(methylsulfonyl)phenyl)-1,3,5-triazin-2-yl)phenyl)urea], the IC50 in assay [1] was < 0.1 µM; in assay [2], > 10 µM; in assay [3], > 10 µM; in assay [5] it was > 10 µM; in assay [6] it was > 10 µM; in assay [7], > 10 µM. Further, the IC50 in assay [8] was 0.1 to 1 µM.

With `CS(=O)(=O)c1ccccc1-c1nc(-c2ccc(NC(=O)NC3CC3)cc2)nc(N2CCCOCC2)n1` [Example 21, 1-cyclopropyl-3-(4-(4-(2-(methylsulfonyl)phenyl)-6-(1,4-oxazepan-4-yl)-1,3,5-triazin-2-yl)phenyl)urea], the IC50 in assay [1] was 0.1 to 1 µM; in assay [2], > 10 µM; in assay [3] it was > 10 µM; in assay [5] it was > 10 µM; in assay [6] it was > 10 µM; in assay [7], > 10 µM. The IC50 in assay [8] fell in the range of 0.1 to 1 µM.

Take `C[C@H]1COCCN1c1nc(-c2ccc(NC(=O)NC3COC3)cc2)nc(-c2ccccc2S(C)(=O)=O)n1` [Example 9, (S)-1-(4-(4-(3-methylmorpholin)-6-(2-(methylsulfonyl)phenyl)-1,3,5-triazin-2-yl)phenyl)-3-(oxetan-3-yl)urea]: the IC50 was 0.1 to 1 µM in assay [1]; > 10 µM in assay [2]; > 10 µM in assay [3]; > 10 µM in assay [5]; > 10 µM in assay [6]; > 10 µM in assay [7]. The IC50 in assay [8] fell in the range of 0.1 to 1 µM.

The values are drawn from patent US9175011B2, “Morpholino substituted urea or carbamate derivatives as MTOR inhibitors” (CELLZOME LIMITED, priority 2011, dated 2015).
